Earlier results as cited in US20120277156A1, “INHIBITION OF PATHOLOGICAL BONE FORMATION” (priority 2009, published 2012).

System: proprioception
Details: rat, in vivo

**Q.** For `CCN(CC)CC(=O)Nc1c(C)cccc1C` [lidocaine], which “time by which function was fully recovered” value is on record?
**A.** ≤ 120 min
